Results on 16 compounds are retold here after patent US10370371B2, “Substituted pyrimidine Bmi-1 inhibitors” (PTC Therapeutics, Inc., priority 2013, dated 2019).

Molecules are shown by their SMILES.

This test has as its system Bmi-1 protein. The test is described as follows: Sandwich ELISA Assay (Bmi-1 protein level in HT-1080 cells). It counts as cell-based. In a few lines:
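HT-1080 cells were treated with compounds (0.5% DMSO final) for 40-48 h at 37 °C. Lysates were assayed by sandwich ELISA: mouse anti-Bmi-1 capture, rabbit anti-Bmi-1 and HRP anti-rabbit detection, TMB read at OD450 (OD570 reference). Levels were quantified against a recombinant GST-Bmi-1 standard curve (125-8000 pg/mL).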
Broadly, the EC50 is the concentration giving half of the maximal effect. Low values mean an effect from little substance, high ones a need for much substance. With `Cc1cccc(Nc2nc(N)cc(-c3c(C)nc4ccc(F)cn34)n2)c1` [Cpd 173, 6-(6-fluoro-2-methylimidazo[1,2-a]pyridin-3-yl)-N^2-(3-methylphenyl)pyrimidine-2,4-diamine], the concentration for a half-maximal effect (EC50) lay within 100 to 3000 nM.

Take `Cc1nc2ccc(F)cc2n1-c1cc(N)nc(Nc2ccc(Cl)c(F)c2)n1` [Cpd 174, N^2-(4-chloro-3-fluorophenyl)-6-(6-fluoro-2-methyl-1H-benzimidazol-1-yl)pyrimidine-2,4-diamine]: the EC50 fell in the range of 10 to 100 nM.

The compound `COc1ccc(Nc2nc(N)c(F)c(-n3c(C)nc4ccccc43)n2)cc1` [Cpd 176, 5-fluoro-N^2-(4-methoxyphenyl)-6-(2-methyl-1H-benzimidazol-1-yl)pyrimidine-2,4-diamine] registered a half-maximal effective concentration (EC50) of 10 to 100 nM.

On to `Cc1nc2ccccc2n1-c1cc(N)nc(Nc2ccc(Cl)cc2)n1` [Cpd 177, N^2-(4-chlorophenyl)-6-(2-methyl-1H-benzimidazol-1-yl)pyrimidine-2,4-diamine], for which the EC50 lay within 10 to 100 nM.

Regarding `Cc1ccc(Nc2nc(N)c(F)c(-n3c(C)nc4ccccc43)n2)cc1` [Cpd 178, 5-fluoro-6-(2-methyl-1H-benzimidazol-1-yl)-N^2-(4-methylphenyl)pyrimidine-2,4-diamine], the EC50 was in the range of 1 to 10 nM.

`Cc1nc2ccccc2n1-c1cc(N)nc(Nc2ccc(Cl)c(F)c2)n1` [Cpd 179, N^2-(4-chloro-3-fluorophenyl)-6-(2-methyl-1H-benzimidazol-1-yl)pyrimidine-2,4-diamine] gave an EC50 of 10 to 100 nM.

For `COc1ccc(Nc2nc(N)cc(-n3c(C)nc4cc(F)c(F)cc43)n2)cc1` [Cpd 180, 6-(5,6-difluoro-2-methyl-1H-benzimidazol-1-yl)-N^2-(4-methoxyphenyl)pyrimidine-2,4-diamine], the EC50 is 1 to 10 nM.

Consider `Cc1ccc(Nc2nc(N)cc(-n3c(C)nc4cc(F)c(F)cc43)n2)cc1` [Cpd 181, 6-(5,6-difluoro-2-methyl-1H-benzimidazol-1-yl)-N^2-(4-methylphenyl)pyrimidine-2,4-diamine], for which the EC50 was in the range of 1 to 10 nM.

`Cc1nc2cc(F)c(F)cc2n1-c1cc(N)nc(Nc2ccc(Cl)cc2)n1` [Cpd 182, N^2-(4-chlorophenyl)-6-(5,6-difluoro-2-methyl-1H-benzimidazol-1-yl)pyrimidine-2,4-diamine] yielded an EC50 of 10 to 100 nM.

The compound `Cc1ccc(Nc2nc(N)cc(-n3c(C)nc4cc(C)c(C)cc43)n2)cc1` [Cpd 183, N^2-(4-methylphenyl)-6-(2,5,6-trimethyl-1H-benzimidazol-1-yl)pyrimidine-2,4-diamine] came in with an EC50 of 10 to 100 nM.

Turning to `Cc1ccc(Nc2nc(N)cc(-c3c(C)noc3C)n2)cc1` [Cpd 190, 6-(3,5-dimethyl-1,2-oxazol-4-yl)-N^2-(4-methylphenyl)pyrimidine-2,4-diamine], the EC50 lay in the range of 100 to 3000 nM.

As to `Cc1nc2cc(F)ccc2n1-c1cc(N)nc(Nc2ccc(Cl)cc2)n1` [Cpd 191, N^2-(4-chlorophenyl)-6-(5-fluoro-2-methyl-1H-benzimidazol-1-yl)pyrimidine-2,4-diamine], the EC50 was 100 to 3000 nM.

`Cc1nc2cc(F)ccc2n1-c1cc(N)nc(Nc2ccc(Cl)c(F)c2)n1` [Cpd 192, N^2-(4-chloro-3-fluorophenyl)-6-(5-fluoro-2-methyl-1H-benzimidazol-1-yl)pyrimidine-2,4-diamine] displayed an EC50 of 100 to 3000 nM.

Take `Cc1nc2cc(F)c(F)cc2n1-c1cc(N)nc(Nc2cccc(Cl)c2)n1` [Cpd 193, N^2-(3-chlorophenyl)-6-(5,6-difluoro-2-methyl-1H-benzimidazol-1-yl)pyrimidine-2,4-diamine]: the concentration giving a half-maximal response (EC50) lay within 100 to 3000 nM.

In turn, `Cc1nc2cc(F)c(F)cc2n1-c1cc(N)nc(Nc2ccc([N+](=O)[O-])cc2)n1` [Cpd 194, 6-(5,6-difluoro-2-methyl-1H-benzimidazol-1-yl)-N^2-(4-nitrophenyl)pyrimidine-2,4-diamine] registered an EC50 of 100 to 3000 nM.

`Cc1cccc(Nc2nc(N)cc(-n3c(C)nc4cc(F)c(F)cc43)n2)c1` [Cpd 195, 6-(5,6-difluoro-2-methyl-1H-benzimidazol-1-yl)-N^2-(3-methylphenyl)pyrimidine-2,4-diamine] registered a half-maximal effective concentration (EC50) of 100 to 3000 nM.
